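Where inhibition never reached the appropriate level, the endpoint shown equals the highest concentration tested. Otherwise, values were interpolated linearly from a five-concentration, 48-hour dose response in 96-well plates. GI50 marks 50% less growth. The concentration for full growth arrest is given as TGI.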

Assay in all cases: growth of human tumour cells (NCI), 48 h
The subject of assay [1] is A498 renal.
In assay [2] the test system is COLO 205 colon.
Assay [3] has as its system SW-620 colon.
Assay [4] has as its system HCT-15 colon.
Assay [5] has as its system HCT-116 colon.
The subject of assay [6] is UACC-257 melanoma.
Assay [7] deals with MDA-MB-435.
Assay [8] has as its system CCRF-CEM leukemia.
Assay [9] has as its system OVCAR-5 ovarian.
For assay [10], the system named is KM12 colon.

In the case of `CCN1C(=O)CCCc2c1ccc(Nc1ncc(Cl)c(NC3[C@@H](C(N)=O)[C@@H]4C=C[C@H]3C4)n1)c2OC` (stereo not given in full), the GI50 in [1] is 0.529 µM; in assay [2] it was 0.633 µM; in assay [3], 0.564 µM; in [4] it was 0.563 µM; in assay [5], 0.805 µM; in assay [6], 0.839 µM. In addition, the GI50 in [7] was 0.917 µM; in [8], 0.607 µM; in assay [9], 1.34 µM; in assay [10] it was 1.87 µM. For the same compound, the TGI in assay [1] was 2.65 µM; in [2], 2.48 µM; in assay [3], 3.48 µM; in assay [4], greater than 20.5 µM; in assay [5], 7.43 µM; in assay [6], 4.34 µM. Besides, the TGI in [7] is 9.85 µM; in [8] it was 17.9 µM; in assay [9], greater than 22.2 µM; in assay [10], 13.9 µM.

For the compound `C=C1C(=O)O[C@H]2[C@H]1CC/C(COC(=O)CCSCCC(=O)OC/C1=C/CC[C@@]3(C)O[C@H]3[C@H]3OC(=O)C(=C)[C@@H]3CC1)=C\CC[C@@]1(C)O[C@@H]21`, the GI50 in assay [1] is 1.7 µM; in assay [2] it was 0.558 µM; in [3], 0.556 µM; in assay [4], 1.11 µM; in assay [5], 0.206 µM; in assay [6] it was 1.64 µM. The GI50 in assay [7] was 1.63 µM; in assay [8], 0.314 µM; in assay [9], 2.11 µM; in assay [10] it was 1.75 µM. Further, the TGI was determined as 4.78 µM in assay [1]; 1.97 µM in [2]; 2.02 µM in assay [3]; 2.46 µM in [4]; 0.609 µM in [5]; 3.6 µM in [6]. Moreover, the TGI in assay [7] is 4.19 µM; in assay [8], 1.25 µM; in [9], 4.21 µM; in assay [10], 3.52 µM.

On to `N#Cc1c(Br)n(C2OC(CO)C(O)C2O)c2ncnc(N)c12` (stereo not given), for which the GI50 in assay [1] is 2.64 µM; in assay [2], 0.675 µM; in assay [3] it was 0.74 µM; in assay [4], 0.695 µM; in [5] it was 0.685 µM; in assay [6], 4.72 µM. In addition, the GI50 was 1.24 µM in assay [7], 0.241 µM in assay [8], 4.17 µM in assay [9] and 1.71 µM in assay [10]. The TGI was 20.9 µM in [1]; 3.07 µM in assay [2]; 32.7 µM in assay [3]; 46.3 µM in [4]; greater than 77.7 µM in assay [5]; 38.5 µM in assay [6]. For the same compound, the TGI in assay [7] was greater than 46.2 µM; in [8], 3.87 µM; in assay [9], greater than 100 µM; in [10] it was greater than 40.1 µM.

For the compound `O=C1C2=C(c3ccccc31)C(c1ccccc1)N1C(=O)CSC1=N2` (stereo not given), the TGI is greater than 100 µM in [1]; greater than 100 µM in [2]; greater than 100 µM in assay [3]; 98.1 µM in assay [4]; greater than 100 µM in [5]; greater than 100 µM in assay [6]. In addition, the TGI in assay [7] was 37.3 µM; in assay [8] it was greater than 100 µM; in assay [9] it was greater than 100 µM; in assay [10] it was greater than 100 µM.

Turning to `COc1ccc2c(c1)CC[C@@H]1[C@@H]2CC[C@]2(C)[C@@H](NC(=O)/C=C/c3ccc(O)c(O)c3)CC[C@@H]12`, the GI50 in assay [1] was 14.3 µM; in assay [2], 14 µM; in assay [3], 5.55 µM; in assay [4], 3.2 µM; in assay [5], 2.02 µM; in [6], 13.4 µM. Also, the GI50 is 3.43 µM in assay [7], 0.731 µM in [8], 6.37 µM in assay [9] and 2.28 µM in assay [10]. Moreover, the TGI was 31.1 µM in [1]; 46.8 µM in assay [2]; 25 µM in assay [3]; 15.4 µM in [4]; 10.4 µM in [5]; 31.8 µM in assay [6]. For the same compound, the TGI amounted to 11.1 µM in assay [7], 6.67 µM in assay [8], 20.7 µM in [9] and 5.88 µM in assay [10].

Consider `CN(COC(=O)c1ccccc1)c1nc(N(C)COC(=O)c2ccccc2)nc(N(C)COC(=O)c2ccccc2)n1`, for which the TGI in assay [1] is 40.8 µM; in [2] it was greater than 100 µM; in [3], greater than 100 µM; in assay [4], greater than 100 µM; in assay [5] it was greater than 100 µM; in assay [6] it was greater than 100 µM. For the same compound, the TGI in [7], in [8], in assay [9] and in assay [10] was greater than 100 µM throughout.

For the compound `COc1cccc(-c2ccc3c(c2)C2CCN(Cc4ccccc4)C3C2)c1` (stereo not given), the GI50 in [1] was 3.77 µM; in assay [2] it was 10 µM; in assay [3], 4.59 µM; in assay [4], 4.86 µM; in assay [5], 4.8 µM; in assay [6], 11.2 µM. Moreover, the GI50 in [7] is 2.43 µM; in assay [8], 9.67 µM; in assay [9], 11.8 µM; in [10] it was 5.14 µM. Further, the TGI in [1] was 17.6 µM; in [2], 27.8 µM; in assay [3] it was 20.3 µM; in assay [4], 19.7 µM; in [5], 23.6 µM; in assay [6], 29.1 µM. Besides, the TGI in assay [7] was found to be 7.29 µM; in assay [8], 56.1 µM; in assay [9] it was 29 µM; in [10] it was 21.6 µM.

`Clc1ccc(-c2nnc(-c3cccc4ccccc34)o2)cc1Cl`: the TGI in [1], in assay [2], in assay [3], in [4], in assay [5] and in assay [6] was greater than 100 µM in each case. Moreover, the TGI in [7], in assay [8], in assay [9] and in assay [10] was greater than 100 µM throughout.

On to `COc1cc(OC)c2nccc(NCCCN(C)C)c2c1[N+](=O)[O-]`, for which the TGI in assay [1], in assay [2], in assay [3], in assay [4], in assay [5] and in [6] was greater than 100 µM each time. In addition, the TGI in assay [7], in assay [8], in [9] and in assay [10] was greater than 100 µM in each case.

The record behind these values is PubChem BioAssay (NCI).
